≈ marks a conversion by molar mass, not a printed value.
How the values were obtained:
Staphylococcus aureus [1] = assay: Antibacterial activity against Staphylococcus aureus ATCC 11632 after 18 to 24 hrs by NCCLS M7-A5 based agar dilution method; type: functional
Escherichia coli [2] = assay: Antibacterial activity against Escherichia coli ATCC 25922 after 18 to 24 hrs by NCCLS M7-A5 based agar dilution method; type: functional
Candida albicans [3] = assay: Antifungal activity against Candida albicans ATCC 90028 assessed as zone of inhibition at 100 ug/disc after 48 hrs by agar disc diffusion method; type: functional; conditions: ATCC 90028, 48 h, read-out: DIZ
Staphylococcus aureus [4] = assay: Antibacterial activity against Staphylococcus aureus ATCC 11632 assessed as zone of inhibition at 100 ug/disc after 24 hrs by agar disc diffusion method; type: functional; conditions: ATCC 11632, 24 h, read-out: DIZ
Escherichia coli [5] = assay: Antibacterial activity against Escherichia coli ATCC 25922 assessed as zone of inhibition at 100 ug/disc after 24 hrs by agar disc diffusion method; type: functional; conditions: ATCC 25922, 24 h, read-out: DIZ
[6] = test system: Mycobacterium tuberculosis; assay: Antituberculosis activity against 10^7 cfu/mL Mycobacterium tuberculosis H37Rv after 28 days; type: functional; conditions: 672 h
Candida albicans [7] = assay: Antifungal activity against Candida albicans ATCC 90028 after 18 to 24 hrs by NCCLS M7-A5 based agar dilution method; type: functional
Staphylococcus aureus [8] = assay: microbe, parasite or virus in culture; conditions: ATCC 11632, 24 h, read-out: DIZ
Description: Antibacterial activity against Staphylococcus aureus ATCC 11632 assessed as zone of inhibition at 10 ug/disc after 24 hrs by agar disc diffusion method

Escherichia coli [9] = assay: microbe, parasite or virus in culture; conditions: ATCC 25922, 24 h, read-out: DIZ
Description: Antibacterial activity against Escherichia coli ATCC 25922 assessed as zone of inhibition at 10 ug/disc after 24 hrs by agar disc diffusion method

Candida albicans [10] = assay: Antifungal activity against Candida albicans ATCC 90028 assessed as zone of inhibition at 10 ug/disc after 48 hrs by agar disc diffusion method; type: functional; conditions: ATCC 90028, 48 h, read-out: DIZ

| Structure (SMILES) | MIC (Staphylococcus aureus [1]) | MIC (Escherichia coli [2]) | zone of inhibition at 100 µg/disc (Candida albicans [3]) | zone of inhibition at 100 µg/disc (Staphylococcus aureus [4]) | zone of inhibition at 100 µg/disc (Escherichia coli [5]) | MIC [6] | MIC (Candida albicans [7]) | zone of inhibition at 10 µg/disc (Staphylococcus aureus [8]) | zone of inhibition at 10 µg/disc (Escherichia coli [9]) | zone of inhibition at 10 µg/disc (Candida albicans [10]) |
| --- | --- | --- | --- | --- | --- | --- | --- | --- | --- | --- |
| O=C(C[C@@H](c1ccccc1)[C@@H]1CCCc2[se]nnc21)c1ccccc1 | 12.5 µg/mL (≈ 31.6 µM) | 12.5 µg/mL (≈ 31.6 µM) | 15 mm | 15 mm | 18 mm | 15.8 µM (≈ 6.25 µg/mL) | 25 µg/mL (≈ 63.2 µM) |  |  |  |
| O=C(C[C@@H](c1ccccc1)[C@@H]1CCCc2[se]nnc21)c1ccc(Cl)cc1 | 12.5 µg/mL (≈ 29.1 µM) | 25 µg/mL (≈ 58.2 µM) | 15 mm | 15 mm | 10 mm | 7.2 µM (≈ 3.09 µg/mL) | 12.5 µg/mL (≈ 29.1 µM) |  |  |  |
| COc1ccc(C(=O)C[C@@H](c2ccccc2)[C@@H]2CCCc3[se]nnc32)cc1 | 25 µg/mL (≈ 58.8 µM) | 12.5 µg/mL (≈ 29.4 µM) | 15 mm | 15 mm | 12 mm | 29.3 µM (≈ 12.5 µg/mL) | 25 µg/mL (≈ 58.8 µM) |  |  |  |
| O=C(C[C@@H](c1ccccc1)[C@@H]1CCCc2[se]nnc21)c1ccc2ccccc2c1 | 25 µg/mL (≈ 56.1 µM) | 25 µg/mL (≈ 56.1 µM) | 10 mm | 15 mm | 10 mm | 28 µM (≈ 12.5 µg/mL) | 50 µg/mL (≈ 112 µM) |  |  |  |
| Cc1ccc([C@H](CC(=O)c2ccccc2)[C@@H]2CCCc3[se]nnc32)cc1 | 12.5 µg/mL (≈ 30.5 µM) | 25 µg/mL (≈ 61.1 µM) | 13 mm | 15 mm | < 10 mm | 15.2 µM (≈ 6.22 µg/mL) | 25 µg/mL (≈ 61.1 µM) |  |  |  |
| O=C(C[C@@H](c1ccc(Cl)cc1)[C@@H]1CCCc2[se]nnc21)c1ccccc1 | 12.5 µg/mL (≈ 29.1 µM) | 12.5 µg/mL (≈ 29.1 µM) | 15 mm | 16 mm | 18 mm | 3.6 µM (≈ 1.55 µg/mL) | 25 µg/mL (≈ 58.2 µM) |  |  |  |
| Cc1ccc(C(=O)C[C@@H](c2ccc(Cl)cc2)[C@@H]2CCCc3[se]nnc32)cc1 | 25 µg/mL (≈ 56.3 µM) | 12.5 µg/mL (≈ 28.2 µM) | 17 mm | 18 mm | 15 mm | 3.5 µM (≈ 1.55 µg/mL) | 12.5 µg/mL (≈ 28.2 µM) |  |  |  |
| O=C(C[C@@H](c1ccc(Cl)cc1)[C@@H]1CCCc2[se]nnc21)c1ccc(Cl)cc1 | 6.25 µg/mL (≈ 13.5 µM) | 6.25 µg/mL (≈ 13.5 µM) | 15 mm | 20 mm | 20 mm | 3.3 µM (≈ 1.53 µg/mL) | 12.5 µg/mL (≈ 26.9 µM) |  |  |  |
| Cc1ccc(C(=O)C[C@@H](c2ccccc2)[C@@H]2CCCc3[se]nnc32)cc1 | 25 µg/mL (≈ 61.1 µM) | 12.5 µg/mL (≈ 30.5 µM) | 12 mm | 18 mm | 17 mm |  | 25 µg/mL (≈ 61.1 µM) |  |  |  |
| COc1ccc([C@H](CC(=O)c2ccccc2)[C@@H]2CCCc3[se]nnc32)cc1 | 25 µg/mL (≈ 58.8 µM) | 25 µg/mL (≈ 58.8 µM) | 12 mm | 18 mm | 15 mm |  | 50 µg/mL (≈ 118 µM) |  |  |  |
| COc1ccc(C(=O)C[C@@H](c2ccc(Cl)cc2)[C@@H]2CCCc3[se]nnc32)cc1 | 12.5 µg/mL (≈ 27.2 µM) | 12.5 µg/mL (≈ 27.2 µM) | 15 mm | 20 mm | 20 mm |  | 25 µg/mL (≈ 54.4 µM) |  |  |  |
| c1ccc(-c2nn[se]c2[C@@H](c2ccccc2)[C@@H]2CCCc3[se]nnc32)cc1 | 25 µg/mL (≈ 51.6 µM) | 25 µg/mL (≈ 51.6 µM) | 15 mm | 15 mm | 12 mm | 51.6 µM (≈ 25 µg/mL) | 25 µg/mL (≈ 51.6 µM) |  |  |  |
| Clc1ccc(-c2nn[se]c2[C@@H](c2ccccc2)[C@@H]2CCCc3[se]nnc32)cc1 | 25 µg/mL (≈ 48.2 µM) | 25 µg/mL (≈ 48.2 µM) | 13 mm | 10 mm | 13 mm | 48.2 µM (≈ 25 µg/mL) | 25 µg/mL (≈ 48.2 µM) |  |  |  |
| COc1ccc(-c2nn[se]c2[C@@H](c2ccccc2)[C@@H]2CCCc3[se]nnc32)cc1 | 25 µg/mL (≈ 48.6 µM) | 25 µg/mL (≈ 48.6 µM) | 12 mm | 12 mm | 12 mm | 48.6 µM (≈ 25 µg/mL) | 50 µg/mL (≈ 97.2 µM) |  |  |  |
| c1ccc([C@H](c2[se]nnc2-c2ccc3ccccc3c2)[C@@H]2CCCc3[se]nnc32)cc1 | 50 µg/mL (≈ 93.6 µM) | 25 µg/mL (≈ 46.8 µM) | 10 mm | 10 mm | 10 mm | 46.8 µM (≈ 25 µg/mL) | 50 µg/mL (≈ 93.6 µM) |  |  |  |
| Cc1ccc([C@H](c2[se]nnc2-c2ccccc2)[C@@H]2CCCc3[se]nnc32)cc1 | 12.5 µg/mL (≈ 25.1 µM) | 25 µg/mL (≈ 50.2 µM) | 10 mm | 16 mm | 12 mm | 50.2 µM (≈ 25 µg/mL) | 50 µg/mL (≈ 100 µM) |  |  |  |
| Clc1ccc([C@H](c2[se]nnc2-c2ccccc2)[C@@H]2CCCc3[se]nnc32)cc1 | 25 µg/mL (≈ 48.2 µM) | 50 µg/mL (≈ 96.4 µM) | 10 mm | 20 mm | < 10 mm | 24.1 µM (≈ 12.5 µg/mL) | 25 µg/mL (≈ 48.2 µM) |  |  |  |
| Cc1ccc(-c2nn[se]c2[C@@H](c2ccc(Cl)cc2)[C@@H]2CCCc3[se]nnc32)cc1 | 25 µg/mL (≈ 46.9 µM) | 25 µg/mL (≈ 46.9 µM) | 15 mm | 15 mm | 15 mm | 23.5 µM (≈ 12.5 µg/mL) | 12.5 µg/mL (≈ 23.5 µM) |  |  |  |
| Clc1ccc(-c2nn[se]c2[C@@H](c2ccc(Cl)cc2)[C@@H]2CCCc3[se]nnc32)cc1 | 25 µg/mL (≈ 45.2 µM) | 12.5 µg/mL (≈ 22.6 µM) | 15 mm | 15 mm | 15 mm | 22.5 µM (≈ 12.4 µg/mL) | 12.5 µg/mL (≈ 22.6 µM) |  |  |  |
| Cc1ccc(-c2nn[se]c2[C@@H](c2ccccc2)[C@@H]2CCCc3[se]nnc32)cc1 | 50 µg/mL (≈ 100 µM) | 25 µg/mL (≈ 50.2 µM) | 10 mm | < 10 mm | 16 mm | 50.2 µM (≈ 25 µg/mL) | 50 µg/mL (≈ 100 µM) |  |  |  |
| COc1ccc([C@H](c2[se]nnc2-c2ccccc2)[C@@H]2CCCc3[se]nnc32)cc1 | 50 µg/mL (≈ 97.2 µM) | 50 µg/mL (≈ 97.2 µM) | < 10 mm | 15 mm | 15 mm | 48.6 µM (≈ 25 µg/mL) | 50 µg/mL (≈ 97.2 µM) |  |  |  |
| COc1ccc(-c2nn[se]c2[C@@H](c2ccc(Cl)cc2)[C@@H]2CCCc3[se]nnc32)cc1 | 25 µg/mL (≈ 45.6 µM) | 12.5 µg/mL (≈ 22.8 µM) | 15 mm | 18 mm | 18 mm | 45.5 µM (≈ 25 µg/mL) | 25 µg/mL (≈ 45.6 µM) |  |  |  |
| O=C(O)c1cn(C2CC2)c2cc(N3CCNCC3)c(F)cc2c1=O [CIPROFLOXACIN] |  |  |  |  |  |  |  | 25 mm | 28 mm |  |
| Clc1ccccc1C(c1ccccc1)(c1ccccc1)n1ccnc1 [CLOTRIMAZOLE] |  |  |  |  |  |  | 6.25 µg/mL (≈ 18.1 µM) |  |  | 28 mm |
| CC[C@@H](CO)NCCN[C@@H](CC)CO [ETHAMBUTOL] |  |  |  |  |  | 7.6 µM (≈ 1.55 µg/mL) |  |  |  |  |
| NNC(=O)c1ccncc1 [ISONIAZID] |  |  |  |  |  | 0.4 µM (≈ 0.0549 µg/mL) |  |  |  |  |
| CO[C@H]1/C=C/O[C@@]2(C)Oc3c(C)c(O)c4c(O)c(c(/C=N/N5CCN(C)CC5)c(O)c4c3C2=O)NC(=O)/C(C)=C\C=C\[C@H](C)[C@H](O)[C@@H](C)[C@@H](O)[C@@H](C)[C@H](OC(C)=O)[C@@H]1C [RIFAMPIN] |  |  |  |  |  | 0.1 µM (≈ 0.0823 µg/mL) |  |  |  |  |

From ChEMBL document CHEMBL1833855, “A facile synthesis of carbocycle-fused mono and bis-1,2,3-selenadiazoles and their antimicrobial and antimycobacterial studies” (2011)
